Patent US10752640B2, “Compounds active towards bromodomains” (NUEVOLUTION A/S, priority 2014, dated 2020)

target: BRD4 protein (Homo sapiens, UniProt O60885); test: FRET assay, half maximal inhibitory concentration (IC50); assay type: binding; details: BRD4 protein 50 nM, Biotin-H4KAc4 peptide 12.5 nM; A Further List of Classification
In short: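 HTRF: 50 nM BRD4 preincubated 30 min at room temperature with compound (10-fold series from 50 μM in 12.5% DMSO) in 50 mM HEPES pH 7.5, 100 mM NaCl, 0.05% CHAPS. Then 12.5 nM biotin-H4KAc4 peptide for 30 min, and anti-GST XL665 (10 nM) plus streptavidin cryptate (2.4 nM) with 0.4 M KF for 1 h. IC50 by variable-slope fit.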

IC50 [nM] | Structure (SMILES)
500 to 1000 | Cc1cc(O)nc2ccc(NC(=O)c3cc(S(=O)(=O)N(C)C)ccc3N3CC(C)C(O)CC3C)cc12 (stereo not shown) [S66, 5-(dimethylsulfamoyl)-2-(4-hydroxy-2,5-dimethyl-1-piperidyl)-N-(2-hydroxy-4-methyl-6-quinolyl)benzamide]
> 10000 | Cc1cc(O)nc2ccc(NC(=O)c3cccc(N4CCCC4)c3)cc12 [S29, N-(2-hydroxy-4-methyl-6-quinolyl)-3-pyrrolidin-1-yl-benzamide, reference compound]
500 to 1000 | Cc1cc(O)nc2ccc(NC(=O)c3cc(CN4CCOCC4)cnc3N3CCC(C(N)=O)C3)cc12 (stereo not shown) [S98, 2-(3-carbamoylpyrrolidin-1-yl)-N-(2-hydroxy-4-methyl-6-quinolyl)-5-(morpholinomethyl)pyridine-3-carboxamide]
500 to 1000 | Cc1cc(O)nc2ccc(NC(=O)c3cc(CN4CCOCC4)cnc3N3CCCC3C(=O)N(C)C)cc12 (stereo not shown) [S109, 2-[2-(dimethylcarbamoyl)pyrrolidin-1-yl]-N-(2-hydroxy-4-methyl-6-quinolyl)-5-(morpholinomethyl)pyridine-3-carboxamide]
1000 to 10000 | Cc1cc(O)nc2ccc(NC(=O)c3cc(S(=O)(=O)N(C)C)ccc3N3CCC4CN(C)CC43)cc12 (stereo not shown) [S54, 5-(dimethylsulfamoyl)-N-(2-hydroxy-4-methyl-6-quinolyl)-2-(5-methyl-2,3,3a,4,6,6a-hexahydropyrrolo[3,4-b]pyrrol-1-yl)benzamide]
200 to 500 | Cc1cc(O)nc2ccc(NC(=O)c3ccccc3N3CCOCC3)cc12 [S2, N-(2-hydroxy-4-methyl-6-quinolyl)-2-morpholino-benzamide]
> 10000 | Cc1cc(O)nc2ccc(NC(=O)c3cc(CN4CCOCC4)cnc3N3CCOC(CO)C3)cc12 (stereo not shown) [S114, 2-[2-(hydroxymethyl)morpholin-4-yl]-N-(2-hydroxy-4-methyl-6-quinolyl)-5-(morpholinomethyl)pyridine-3-carboxamide]
< 200 | Cc1cc(O)nc2ccc(NC(=O)c3cc(S(=O)(=O)N(C)C)ccc3N3CCC(CN(C)C)C3)cc12 (stereo not shown) [S47, 2-[3-(dimethylaminomethyl)pyrrolidin-1-yl]-5-(dimethylsulfamoyl)-N-(2-hydroxy-4-methyl-6-quinolyl)benzamide]
> 10000 | CN1C(=O)CCc2cc(NC(=O)c3ccccc3N3CCN(c4cnccn4)CC3)ccc21 [S8, N-(1-methyl-2-oxo-3,4-dihydroquinolin-6-yl)-2-(4-pyrazin-2-ylpiperazin-1-yl)benzamide]
< 200 | Cc1cc(O)nc2ccc(NC(=O)c3cc(CN4CCOCC4)cnc3N3CCC(C)C3)cc12 (stereo not shown) [S93, N-(2-hydroxy-4-methyl-6-quinolyl)-2-(3-methylpyrrolidin-1-yl)-5-(morpholinomethyl)pyridine-3-carboxamide]

same assay, conditions: BRD4 protein 50 nM, Biotin-H4KAc4 peptide 12.5 nM; List of Classification

IC50 [nM] | Structure (SMILES)
1000 to 10000 | CN1Cc2cc(NC(=O)c3cccnc3N3CCOCC3)ccc2NC1=O [Compound-130, N-(3-methyl-2-oxo-1,4-dihydroquinazolin-6-yl)-2-morpholino-pyridine-3-carboxamide]
< 200 | Cc1cc(O)nc2ccc(NC(=O)c3cc(N)cnc3N3CCCC3)cc12 [Compound-24, 5-amino-N-(2-hydroxy-4-methyl-6-quinolyl)-2-pyrrolidin-1-yl-pyridine-3-carboxamide]
500 to 1000 | Cc1cc(O)nc2ccc(NC(=O)c3nc(C#N)ccc3N3CCCC3)cc12 [Compound-35, 6-Cyano-N-(2-hydroxy-4-methylquinolin-6-yl)-3-(pyrrolidin-1-yl)picolinamide]
< 200 | Cc1cc(=O)[nH]c2ccc(NC(=O)c3cc(S(=O)(=O)N(C)C)ccc3N3CC[C@@H](F)C3)cc12 [Compound-172, (R)-5-(N,N-dimethylsulfamoyl)-2-(3-fluoropyrrolidin-1-yl)-N-(4-methyl-2-oxo-1,2-dihydroquinolin-6-yl)benzamide]
500 to 1000 | COc1cc(O)nc2ccc(NC(=O)c3cccnc3N3CCOCC3)cc12 [Compound-149, N-(2-hydroxy-4-methoxy-6-quinolyl)-2-morpholino-pyridine-3-carboxamide]
> 10000 | Cc1cc(O)nc2ccc(N(C)C(=O)c3cc(S(=O)(=O)N(C)C)ccc3N3CCN(C)CC3)cc12 [Compound-21, 5-(N, N-dimethylsulfamoyl)-N-(2-hydroxy-4-methylquinolin-6-yl)-N-methyl-2-(4-methylpiperazin-1-yl) benzamide]
500 to 1000 | Cc1cc(O)nc2ccc(NC(=O)c3cc(N)ccc3-n3cccn3)cc12 [Compound-105, 5-amino-N-(2-hydroxy-4-methyl-6-quinolyl)-2-pyrazol-1-yl-benzamide]
< 200 | Cc1cc(O)nc2ccc(NC(=O)c3cccnc3N3CCCC3)cc12 [Compound-96, N-(2-hydroxy-4-methyl-6-quinolyl)-2-pyrrolidin-1-yl-pyridine-3-carboxamide]
< 200 | Cc1cc(O)nc2ccc(NC(=O)c3cc(C(=O)N4CCN(C)CC4)ccc3N3CCOCC3)cc12 [Compound-10, N-(2-hydroxy-4-methyl-6-quinolyl)-5-(4-methylpiperazine-1-carbonyl)-2-morpholino-benzamide]
< 200 | Cc1cc(O)nc2ccc(NC(=O)c3cc(S(=O)(=O)N4CCOCC4)ccc3N3CCOCC3)cc12 [Compound-68, N-(2-hydroxy-4-methyl-6-quinolyl)-2-morpholino-5-morpholinosulfonyl-benzamide]
500 to 1000 | Cc1cc(O)nc2ccc(NC(=O)c3cccnc3N3CCn4ccnc4C3)cc12 [Compound-147, 2-(6,8-dihydro-5H-imidazo[1,2-a]pyrazin-7-yl)-N-(2-hydroxy-4-methyl-6-quinolyl)pyridine-3-carboxamide]
200 to 500 | Cc1cc(O)nc2ccc(NC(=O)c3cc(S(=O)(=O)N(C)C)ccc3N3CCC(N(C)C)C3)cc12 (stereo not shown) [Compound-16, 2-[3-(dimethylamino)pyrrolidin-1-yl]-5-(dimethylsulfamoyl)-N-(2-hydroxy-4-methyl-6-quinolyl)benzamide]
< 200 | CC(=O)N1CCN(Cc2ccc(N3CCCC3)c(C(=O)Nc3ccc4nc(O)cc(C)c4c3)c2)CC1 [Compound-4, 5-[(4-acetylpiperazin-1-yl)methyl]-N-(2-hydroxy-4-methyl-6-quinolyl)-2-pyrrolidin-1-yl-benzamide]
< 200 | Cc1cc(O)nc2ccc(NC(=O)c3cc(CN4CCOCC4)cnc3N3CCC(F)C3)cc12 (stereo not shown) [Compound-88, 2-(3-fluoropyrrolidin-1-yl)-N-(2-hydroxy-4-methyl-6-quinolyl)-5-(morpholinomethyl)pyridine-3-carboxamide]
< 200 | Cc1cc(O)nc2ccc(NC(=O)c3cc(Cl)cnc3N3CCOCC3)cc12 [Compound-140, 5-chloro-N-(2-hydroxy-4-methyl-6-quinolyl)-2-morpholino-pyridine-3-carboxamide]
1000 to 10000 | Cc1ccnc(N2CCOCC2)c1C(=O)Nc1ccc2nc(O)cc(C)c2c1 [Compound-138, N-(2-hydroxy-4-methyl-6-quinolyl)-4-methyl-2-morpholino-pyridine-3-carboxamide]
< 200 | Cc1cc(O)nc2ccc(NC(=O)c3cc(-c4cnoc4)cnc3N3CCOCC3)cc12 [Compound-176, N-(2-hydroxy-4-methylquinolin-6-yl)-5-(isoxazol-4-yl)-2-morpholinonicotinamide]
< 200 | Cc1cc(O)nc2ccc(NC(=O)c3cc(C(C)O)ncc3N3CCOCC3)cc12 (stereo not shown) [Compound-208, N-(2-hydroxy-4-methylquinolin-6-yl)-2-(1-hydroxyethyl)-5-morpholinoisonicotinamide]
< 200 | Cc1cc(O)nc2ccc(NC(=O)c3cc(-c4cnoc4)ccc3N3CCOCC3)cc12 [Compound-151, N-(2-hydroxy-4-methyl-6-quinolyl)-5-isoxazol-4-yl-2-morpholino-benzamide]
< 200 | CC(C)c1cc(O)nc2ccc(NC(=O)c3cc(S(=O)(=O)N(C)C)ccc3N3CCCC3)cc12 [Compound-165, 5-(dimethylsulfamoyl)-N-(2-hydroxy-4-isopropyl-6-quinolyl)-2-pyrrolidin-1-yl-benzamide]
< 200 | Cc1cc(O)nc2c(C)cc(NC(=O)c3cc(-c4ccoc4)ccc3N3CCOCC3)cc12 [Compound-157, 5-(3-furyl)-N-(2-hydroxy-4,8-dimethyl-6-quinolyl)-2-morpholino-benzamide]
< 200 | Cc1cc(O)nc2ccc(NC(=O)c3cc(S(=O)(=O)N(C)C)ccc3N3CCOCC3)cc12 [Compound-73, 5-(dimethylsulfamoyl)-N-(2-hydroxy-4-methyl-6-quinolyl)-2-morpholino-benzamide]
< 200 | Cc1cc(O)nc2ccc(NC(=O)c3cc(S(=O)(=O)N(C)C)ccc3N3CCC(O)C3)cc12 (stereo not shown) [Compound-17, 5-(dimethylsulfamoyl)-N-(2-hydroxy-4-methyl-6-quinolyl)-2-(3-hydroxypyrrolidin-1-yl)benzamide]
< 200 | Cc1cc(O)nc2ccc(NC(=O)c3cc(C#N)ncc3N3CCOCC3)cc12 [Compound-116, 2-cyano-N-(2-hydroxy-4-methylquinolin-6-yl)-5-morpholinoisonicotinamide]
< 200 | Cc1cc(O)nc2ccc(NC(=O)c3cc(-c4nnn[nH]4)ncc3N3CCCC3)cc12 [Compound-203, N-(2-hydroxy-4-methylquinolin-6-yl)-5-(pyrrolidin-1-yl)-2-(1H-tetrazol-5-yl) isonicotinamide]
< 200 | CN(C)S(=O)(=O)c1ccc(N2CCCC2)c(C(=O)Nc2cc(F)c3c(c2)C(C)(C)CC(=O)N3)c1 [Compound-106, 5-(dimethylsulfamoyl)-N-(8-fluoro-4,4-dimethyl-2-oxo-1,3-dihydroquinolin-6-yl)-2-pyrrolidin-1-yl-benzamide]
< 200 | Cc1cc(O)nc2ccc(NC(=O)c3cc(-c4ccoc4)ccc3N3CCOCC3)cc12 [Compound-167, 5-(3-furyl)-N-(2-hydroxy-4-methyl-6-quinolyl)-2-morpholino-benzamide]
